Data from patent US20240092835A1, “NOVEL PEPTIDES CAPABLE OF ALTERING NK CELL ACTIVITY” (Massachusetts Institute of Technology, priority 2022, published 2024).
Where no end group is shown, it is not given here.

Experiments:
[1] = molecular target: CD94/NKG2A (Homo sapiens, UniProt P26715+Q13241); test: Steady-state surface plasmon resonance of peptide-HLA-E complex with CD94/NKG2A; assay type: binding; details: for Binding of peptide-HLA-E complexes to CD94/NKG2A normalized to a theoretical Rmax: steady-state SPR
Chain of CD94/NKG2A (P26715 94-233 limits assumed): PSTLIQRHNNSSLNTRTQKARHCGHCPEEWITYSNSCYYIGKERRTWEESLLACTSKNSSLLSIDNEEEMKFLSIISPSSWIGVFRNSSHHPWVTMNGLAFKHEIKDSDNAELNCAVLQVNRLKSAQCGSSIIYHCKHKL
Chain of CD94/NKG2A (Q13241 32-179 limits assumed): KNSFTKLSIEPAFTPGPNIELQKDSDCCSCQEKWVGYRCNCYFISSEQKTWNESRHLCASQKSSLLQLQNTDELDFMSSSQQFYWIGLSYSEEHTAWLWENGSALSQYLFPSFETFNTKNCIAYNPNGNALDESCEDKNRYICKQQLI
Experimental: (§1) Binding affinity of novel peptides linked to HLA-E was determined using surface plasmon resonance (SPR), a methodology used to study protein-protein interactions (Tables 15-19). The peptide-HLA-E complex (generated as a single chain trimer) was immobilized on the sensor chip surface and CD94/NKG2A or CD94/NKG2C were flowed over. Steady-state surface plasmon resonance experiments were performed with a Biacore T200 instrument. CD94/NKG2x in HBS-EP+ buffer was injected as analyte in a concentration range of 0.1 μM to 102.4 μM and flow rate of 10 μL/min at 25° C. Data was fit with Prism 9.4 (GraphPad Software Inc; San Diego CA) to a “one site, specific binding” model. Series S CM5 chips were coupled to neutravidin and utilized. Biotinylated pMHC was immobilized at approximately 400 RU. KD values calculated by Biacore software are reported. Rmax, fit values were calculated by Biacore software. Rmax, theoretical values were calculated using the analyte/ligand mass ratio (0.66) multiplied by the amount of ligand coupled to the chip.

[2] = molecular target: CD94/NKG2C (Homo sapiens, UniProt P26717+Q13241); test: Steady-state surface plasmon resonance of peptide-HLA-E complex with CD94/NKG2C; assay type: binding; details: for Binding of peptide-HLA-E complexes to CD94/NKG2C normalized to a theoretical Rmax: steady-state SPR
Chain of CD94/NKG2C (P26717 94-231 limits assumed): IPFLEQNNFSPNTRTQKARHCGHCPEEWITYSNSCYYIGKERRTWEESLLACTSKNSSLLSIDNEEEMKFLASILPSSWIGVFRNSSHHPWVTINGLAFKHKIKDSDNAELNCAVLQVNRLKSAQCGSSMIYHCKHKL
Chain of CD94/NKG2C (Q13241 32-179 limits assumed): as the sequence (Q13241 32-179 limits assumed) above
Experimental: as §1

TGPWRSLWI [human3, TGPWRSLWI]
binding of peptide-HLA-E complex to CD94/NKG2A normalized to a fitted Rmax ([1]; CD94/NKG2A concentration 0 μM): 0.013 | binding of peptide-HLA-E complex to CD94/NKG2A normalized to a fitted Rmax ([1]; CD94/NKG2A concentration 0.1 μM): 0.015 | binding of peptide-HLA-E complex to CD94/NKG2A normalized to a fitted Rmax ([1]; CD94/NKG2A concentration 0.2 μM): 0.019 | binding of peptide-HLA-E complex to CD94/NKG2A normalized to a fitted Rmax ([1]; CD94/NKG2A concentration 0.4 μM): 0.030 | binding of peptide-HLA-E complex to CD94/NKG2A normalized to a fitted Rmax ([1]; CD94/NKG2A concentration 0.8 μM): 0.051 | binding of peptide-HLA-E complex to CD94/NKG2A normalized to a fitted Rmax ([1]; CD94/NKG2A concentration 1.6 μM): 0.086 | binding of peptide-HLA-E complex to CD94/NKG2A normalized to a fitted Rmax ([1]; CD94/NKG2A concentration 3.2 μM): 0.145 | binding of peptide-HLA-E complex to CD94/NKG2A normalized to a fitted Rmax ([1]; CD94/NKG2A concentration 6.4 μM): 0.231 | binding of peptide-HLA-E complex to CD94/NKG2A normalized to a fitted Rmax ([1]; CD94/NKG2A concentration 12.8 μM): 0.336 | binding of peptide-HLA-E complex to CD94/NKG2A normalized to a fitted Rmax ([1]; CD94/NKG2A concentration 25.6 μM): 0.472 | binding of peptide-HLA-E complex to CD94/NKG2A normalized to a fitted Rmax ([1]; CD94/NKG2A concentration 51.2 μM): 0.639 | binding of peptide-HLA-E complex to CD94/NKG2A normalized to a fitted Rmax ([1]; CD94/NKG2A concentration 102.4 μM): 0.827 | Binding of peptide-HLA-E complexes to CD94/NKG2A normalized to a theoretical Rmax ([1]; CD94/NKG2A analyte concentration 0.000 μM): 0.004 | Binding of peptide-HLA-E complexes to CD94/NKG2A normalized to a theoretical Rmax ([1]; CD94/NKG2A analyte concentration 0.100 μM): 0.005 | Binding of peptide-HLA-E complexes to CD94/NKG2A normalized to a theoretical Rmax ([1]; CD94/NKG2A analyte concentration 0.200 μM): 0.006 | Binding of peptide-HLA-E complexes to CD94/NKG2A normalized to a theoretical Rmax ([1]; CD94/NKG2A analyte concentration 0.400 μM): 0.009 | Binding of peptide-HLA-E complexes to CD94/NKG2A normalized to a theoretical Rmax ([1]; CD94/NKG2A analyte concentration 0.800 μM): 0.015 | Binding of peptide-HLA-E complexes to CD94/NKG2A normalized to a theoretical Rmax ([1]; CD94/NKG2A analyte concentration 1.600 μM): 0.026 | Binding of peptide-HLA-E complexes to CD94/NKG2A normalized to a theoretical Rmax ([1]; CD94/NKG2A analyte concentration 3.200 μM): 0.044 | Binding of peptide-HLA-E complexes to CD94/NKG2A normalized to a theoretical Rmax ([1]; CD94/NKG2A analyte concentration 6.400 μM): 0.070 | Binding of peptide-HLA-E complexes to CD94/NKG2A normalized to a theoretical Rmax ([1]; CD94/NKG2A analyte concentration 12.800 μM): 0.102 | Binding of peptide-HLA-E complexes to CD94/NKG2A normalized to a theoretical Rmax ([1]; CD94/NKG2A analyte concentration 25.600 μM): 0.143 | Binding of peptide-HLA-E complexes to CD94/NKG2A normalized to a theoretical Rmax ([1]; CD94/NKG2A analyte concentration 51.200 μM): 0.194 | Binding of peptide-HLA-E complexes to CD94/NKG2A normalized to a theoretical Rmax ([1]; CD94/NKG2A analyte concentration 102.400 μM): 0.250 | binding of peptide-HLA-E complex to CD94/NKG2C normalized to a fitted Rmax ([2]; CD94/NKG2C concentration 0 μM): 0.006 | binding of peptide-HLA-E complex to CD94/NKG2C normalized to a fitted Rmax ([2]; CD94/NKG2C concentration 0.1 μM): 0.008 | binding of peptide-HLA-E complex to CD94/NKG2C normalized to a fitted Rmax ([2]; CD94/NKG2C concentration 0.2 μM): 0.007 | binding of peptide-HLA-E complex to CD94/NKG2C normalized to a fitted Rmax ([2]; CD94/NKG2C concentration 0.4 μM): 0.011 | binding of peptide-HLA-E complex to CD94/NKG2C normalized to a fitted Rmax ([2]; CD94/NKG2C concentration 0.8 μM): 0.016 | binding of peptide-HLA-E complex to CD94/NKG2C normalized to a fitted Rmax ([2]; CD94/NKG2C concentration 1.6 μM): 0.026 | binding of peptide-HLA-E complex to CD94/NKG2C normalized to a fitted Rmax ([2]; CD94/NKG2C concentration 3.2 μM): 0.044 | binding of peptide-HLA-E complex to CD94/NKG2C normalized to a fitted Rmax ([2]; CD94/NKG2C concentration 6.4 μM): 0.078 | binding of peptide-HLA-E complex to CD94/NKG2C normalized to a fitted Rmax ([2]; CD94/NKG2C concentration 12.8 μM): 0.130 | binding of peptide-HLA-E complex to CD94/NKG2C normalized to a fitted Rmax ([2]; CD94/NKG2C concentration 25.6 μM): 0.219 | binding of peptide-HLA-E complex to CD94/NKG2C normalized to a fitted Rmax ([2]; CD94/NKG2C concentration 51.2 μM): 0.353 | binding of peptide-HLA-E complex to CD94/NKG2C normalized to a fitted Rmax ([2]; CD94/NKG2C concentration 102.4 μM): 0.537 | Binding of peptide-HLA-E complexes to CD94/NKG2C normalized to a theoretical Rmax ([2]; CD94/NKG2C analyte concentration 0 μM): 0.002 | Binding of peptide-HLA-E complexes to CD94/NKG2C normalized to a theoretical Rmax ([2]; CD94/NKG2C analyte concentration 0.1 μM): 0.003 | Binding of peptide-HLA-E complexes to CD94/NKG2C normalized to a theoretical Rmax ([2]; CD94/NKG2C analyte concentration 0.2 μM): 0.003 | Binding of peptide-HLA-E complexes to CD94/NKG2C normalized to a theoretical Rmax ([2]; CD94/NKG2C analyte concentration 0.4 μM): 0.004 | Binding of peptide-HLA-E complexes to CD94/NKG2C normalized to a theoretical Rmax ([2]; CD94/NKG2C analyte concentration 0.8 μM): 0.006 | Binding of peptide-HLA-E complexes to CD94/NKG2C normalized to a theoretical Rmax ([2]; CD94/NKG2C analyte concentration 1.6 μM): 0.010 | Binding of peptide-HLA-E complexes to CD94/NKG2C normalized to a theoretical Rmax ([2]; CD94/NKG2C analyte concentration 3.2 μM): 0.017 | Binding of peptide-HLA-E complexes to CD94/NKG2C normalized to a theoretical Rmax ([2]; CD94/NKG2C analyte concentration 6.4 μM): 0.030 | Binding of peptide-HLA-E complexes to CD94/NKG2C normalized to a theoretical Rmax ([2]; CD94/NKG2C analyte concentration 12.8 μM): 0.050 | Binding of peptide-HLA-E complexes to CD94/NKG2C normalized to a theoretical Rmax ([2]; CD94/NKG2C analyte concentration 25.6 μM): 0.084 | Binding of peptide-HLA-E complexes to CD94/NKG2C normalized to a theoretical Rmax ([2]; CD94/NKG2C analyte concentration 51.2 μM): 0.135 | Binding of peptide-HLA-E complexes to CD94/NKG2C normalized to a theoretical Rmax ([2]; CD94/NKG2C analyte concentration 102.4 μM): 0.205
